The assay addresses T1, PI3Kα (class I catalytic subunit p110α) (Homo sapiens, UniProt P42336).
T1 construct: gene PIK3CA
Put plainly: PI3K ADP-Glo kinase assay (Promega) on purified PI3Kα; also […] inhibition at […] in a recombinant kinase panel. In kind it is biochemical.

T1 sequence (P42336 whole entry): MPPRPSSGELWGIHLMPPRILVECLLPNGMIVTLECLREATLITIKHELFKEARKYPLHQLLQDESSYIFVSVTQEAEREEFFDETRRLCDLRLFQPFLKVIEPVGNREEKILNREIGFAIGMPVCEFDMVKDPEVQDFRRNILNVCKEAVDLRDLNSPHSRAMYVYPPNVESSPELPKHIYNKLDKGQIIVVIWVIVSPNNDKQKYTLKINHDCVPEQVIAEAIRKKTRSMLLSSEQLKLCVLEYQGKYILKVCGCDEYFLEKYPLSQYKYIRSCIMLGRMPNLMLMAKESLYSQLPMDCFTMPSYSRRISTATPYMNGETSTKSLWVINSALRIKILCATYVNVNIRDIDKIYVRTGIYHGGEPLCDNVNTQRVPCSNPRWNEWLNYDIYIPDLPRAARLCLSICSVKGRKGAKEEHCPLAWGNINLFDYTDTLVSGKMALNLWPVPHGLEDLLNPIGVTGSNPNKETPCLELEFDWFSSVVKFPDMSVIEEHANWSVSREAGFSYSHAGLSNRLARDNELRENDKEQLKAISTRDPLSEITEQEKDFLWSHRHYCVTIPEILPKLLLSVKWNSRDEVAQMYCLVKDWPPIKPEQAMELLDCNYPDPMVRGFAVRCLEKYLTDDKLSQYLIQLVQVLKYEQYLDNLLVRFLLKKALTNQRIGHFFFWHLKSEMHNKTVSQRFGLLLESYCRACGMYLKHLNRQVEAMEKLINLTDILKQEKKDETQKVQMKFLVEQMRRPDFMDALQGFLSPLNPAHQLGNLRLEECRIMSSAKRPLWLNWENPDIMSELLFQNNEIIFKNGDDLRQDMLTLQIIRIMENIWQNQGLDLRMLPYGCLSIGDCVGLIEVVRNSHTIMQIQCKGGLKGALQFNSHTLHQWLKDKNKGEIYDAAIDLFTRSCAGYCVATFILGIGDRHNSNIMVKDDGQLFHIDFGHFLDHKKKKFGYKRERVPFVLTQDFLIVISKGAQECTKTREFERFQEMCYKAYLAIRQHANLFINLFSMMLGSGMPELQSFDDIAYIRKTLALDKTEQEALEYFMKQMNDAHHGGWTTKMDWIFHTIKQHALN
T1 sequence (P27986 2-724 partner): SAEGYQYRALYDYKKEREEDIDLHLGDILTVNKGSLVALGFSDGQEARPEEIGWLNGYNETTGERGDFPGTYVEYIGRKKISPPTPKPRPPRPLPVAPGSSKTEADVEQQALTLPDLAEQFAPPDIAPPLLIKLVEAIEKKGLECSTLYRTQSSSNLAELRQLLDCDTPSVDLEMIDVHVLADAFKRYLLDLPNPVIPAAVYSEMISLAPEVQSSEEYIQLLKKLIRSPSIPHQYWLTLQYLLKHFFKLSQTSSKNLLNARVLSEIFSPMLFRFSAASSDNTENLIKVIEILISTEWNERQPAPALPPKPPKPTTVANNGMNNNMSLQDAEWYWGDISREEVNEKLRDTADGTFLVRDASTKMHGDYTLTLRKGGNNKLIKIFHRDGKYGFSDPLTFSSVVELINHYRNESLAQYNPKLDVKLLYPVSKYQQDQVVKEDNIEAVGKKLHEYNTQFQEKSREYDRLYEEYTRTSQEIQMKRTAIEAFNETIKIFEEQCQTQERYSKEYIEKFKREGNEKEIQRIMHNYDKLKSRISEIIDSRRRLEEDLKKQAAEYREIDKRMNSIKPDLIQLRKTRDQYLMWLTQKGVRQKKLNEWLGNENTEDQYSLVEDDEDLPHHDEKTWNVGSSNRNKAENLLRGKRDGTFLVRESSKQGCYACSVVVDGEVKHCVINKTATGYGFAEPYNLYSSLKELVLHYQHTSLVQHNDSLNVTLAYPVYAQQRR

The term IC50 denotes the concentration that inhibits the measured activity by half. On to `O=C(/C=C/c1ccc(O)c(O)c1)c1ccc(O)cc1O` [butein], for which the 50% inhibitory concentration (IC50) turned out to be 6.4 µM.

For the origin of these results see publication PMC6115456, “PI3Ka-Akt1-mediated Prdm4 induction in adipose tissue increases energy expenditure, inhibits weight gain, and improves insulin resistance in diet-induced obese mice” (Cell Death & Disease, 2018).
